In ChEMBL document CHEMBL6182943, “Identification of 4'-Thiouridine as an Orally Available Antiviral Agent Targeting Both RdRp and NiRAN Functions of SARS-CoV-2 Nsp12” (J Med Chem, 2025):

Experiments:
[1] = test system: SARS-CoV-2; assay: (§1) Antiviral activity against SARS-CoV-2 Wuhan-like (hCoV-19/Korea/KCDC06/2020) infected in human Calu-3 cells assessed as reduction in number of spike-protein expressing cells pre-infected for 30 mins followed by compound addition and measured 48 hrs post-infection by DAPI staining based immunofluorescence analysis relative to control; format: functional, organism-based; settings: Severe acute respiratory syndrome coronavirus 2, Wuhan-like (hCoV-19/Korea/KCDC06/2020)
[2] = test system: SARS-CoV-2; assay: Antiviral activity against SARS-CoV-2 infected in african green monkey Vero cells assessed as reduction in number of spike-protein expressing cells pre-infected for 30 mins followed by compound addition and measured 48 hrs post-infection by DAPI staining based immunofluorescence analysis; format: functional, organism-based; settings: Severe acute respiratory syndrome coronavirus 2, Vero
[3] = Selectivity index, ratio of CC50 for cytotoxicity against human Huh-7 cells to EC50 for antiviral activity against MERS-CoV KOR/KNIH/002_05_2015 infected in human Huh-7 cells assessed as inhibition of virus-induced cytopathic effect; format: toxicity, cell-based; settings: read-out: Ratio CC50/EC50
[4] = test system: Human coronavirus NL63; assay: Antiviral activity against HCoV-NL63 infected in LLC-MK2 cells assessed as inhibition of virus-induced cytopathic effect measured 2 to 7 days post infection by MTT-based cell viability assay; format: functional, organism-based
[5] = Cytotoxicity against rhesus monkey LLC-MK2 cells assessed as reduction in cell viability by MTT-based cell viability assay; format: toxicity, Macaca mulatta
[6] = test system: Zaire ebolavirus; assay: Antiviral activity against Zaire Ebola virus infected in HEK293T cells transfected with viral replication protein and Renilla luciferase pre-infected for 4 hrs followed by compound addition and measured after 48 hrs by Dual-luciferase reporter assay; format: functional, organism-based; settings: HEK-293T
[7] = Selectivity index, ratio of CC50 for cytotoxicity against human Calu-3 cells to EC50 for antiviral activity against SARS-CoV-2 Omicron (hCoV-19/Korea/KDCA447321/2021) infected in human Calu-3 cells assessed as reduction in number of spike-protein expressing cells; format: toxicity, cell-based; settings: read-out: Ratio CC50/EC50
[8] = test system: SARS-CoV-2; assay: as §1, with “Omicron (hCoV-19/Korea/KDCA447321/2021)” for “Wuhan-like (hCoV-19/Korea/KCDC06/2020)”; format: functional, organism-based; settings: Severe acute respiratory syndrome coronavirus 2, Omicron (hCoV-19/Korea/KDCA447321/2021)
[9] = Selectivity index, ratio of CC50 for cytotoxicity against human Calu-3 cells to EC50 for antiviral activity against SARS-CoV-2 Delta (hCoV-19/Korea/KDCA119861/2021) infected in human Calu-3 cells assessed as reduction in number of spike-protein expressing cells; format: toxicity, cell-based; settings: read-out: Ratio CC50/EC50
[10] = test system: Middle East respiratory syndrome-related coronavirus; assay: Antiviral activity against MERS-CoV KOR/KNIH/002_05_2015 infected in human Huh-7 cells assessed as inhibition of virus-induced cytopathic effect measured 2 to 7 days post infection by MTT-based cell viability assay; format: functional, organism-based; settings: KOR/KNIH/002_05_2015, Huh-7
[11] = Cytotoxicity against HEK293T cells assessed as reduction in cell viability measured after 48 hrs by MTT assay; format: toxicity, cell-based, HEK-293T; settings: human
[12] = Cytotoxicity against African green monkey Vero cells assessed as reduction in cell viability incubated for 48 hrs by MTT assay; format: toxicity, cell-based; settings: chlorocebus sabaeus
[13] = Selectivity index, ratio of CC50 for cytotoxicity against rhesus monkey LLC-MK2 cells to EC50 for antiviral activity against HCoV-NL63 infected in rhesus monkey LLC-MK2 cells assessed as inhibition of virus-induced cytopathic effect; format: toxicity, cell-based; settings: read-out: Ratio CC50/EC50
[14] = Selectivity index, ratio of CC50 for cytotoxicity against HEK293T cells to EC50 for antiviral activity against Zaire Ebola virus infected in HEK293T cells transfected with viral replication protein and Renilla luciferase; format: toxicity, cell-based; settings: human, read-out: Ratio CC50/EC50
[15] = test system: SARS-CoV-2; assay: as §1, with “Delta (hCoV-19/Korea/KDCA119861/2021)” for “Wuhan-like (hCoV-19/Korea/KCDC06/2020)”; format: functional, organism-based; settings: Severe acute respiratory syndrome coronavirus 2, Delta (hCoV-19/Korea/KDCA119861/2021)
[16] = Cytotoxicity against human Huh-7 cells assessed as reduction in cell viability by MTT-based cell viability assay; format: toxicity
[17] = Selectivity index, ratio of CC50 for cytotoxicity against human Calu-3 cells to EC50 for antiviral activity against SARS-CoV-2 Wuhan-like (hCoV-19/Korea/KCDC06/2020) infected in human Calu-3 cells assessed as reduction in number of spike-protein expressing cells; format: toxicity, cell-based; settings: read-out: Ratio CC50/EC50
[18] = Cytotoxicity against human Calu-3 cells assessed as reduction in cell viability incubated for 48 hrs by MTT assay; format: toxicity, cell-based
[19] = test system: SARS-CoV-2; assay: as §1, with “Gamma (hCoV-19/Korea95637/KDCA/2021)” for “Wuhan-like (hCoV-19/Korea/KCDC06/2020)”; format: functional, organism-based; settings: Severe acute respiratory syndrome coronavirus 2, Gamma (hCoV-19/Korea95637/KDCA/2021)
[20] = Selectivity index, ratio of CC50 for cytotoxicity against human Calu-3 cells to EC50 for antiviral activity against SARS-CoV-2 Gamma (hCoV-19/Korea95637/KDCA/2021) infected in human Calu-3 cells assessed as reduction in number of spike-protein expressing cells; format: toxicity, cell-based; settings: read-out: Ratio CC50/EC50
[21] = Selectivity index, ratio of CC50 for cytotoxicity against African green monkey Vero cells to EC50 for antiviral activity against SARS-CoV-2 infected in african green monkey Vero cells assessed as reduction in number of spike-protein expressing cells; format: toxicity, cell-based; settings: read-out: Ratio CC50/EC50
[22] = test system: Influenza A virus (H1N1); assay: Antiviral activity against Influenza A virus A/Puerto Rico/8/34 (H1N1) infected in MDCK cells assessed as reduction in virus-induced cytopathic effect incubated for 3 days in presence of TPCK-treated trypsin by MTT assay; format: functional, organism-based; settings: 72 h
[23] = test system: Influenza A virus; assay: Antiviral activity against Influenza A virus A/Hong Kong/8/68 (H3N2) infected in MDCK cells assessed as reduction in virus-induced cytopathic effect incubated for 3 days in presence of TPCK-treated trypsin by MTT assay; format: functional, organism-based; settings: 72 h
[24] = Cytotoxicity against golden hamster BHK-21 cells assessed as reduction in cell viability by MTT assay; format: toxicity, cell-based, Mesocricetus auratus
[25] = Cytotoxicity against MDCK cells assessed as reduction in cell viability incubated for 3 days by MTT assay; format: toxicity, cell-based, Canis lupus familiaris; settings: dog, time 3 day
[26] = test system: dengue virus type 2; assay: Antiviral activity against Dengue virus 2 infected in BHK-21 cells transfected with Renilla luciferase tagged viral subgenomic replicon incubated for 48 hrs by luciferase based assay; format: functional, organism-based; settings: BHK-21, 48 h
[27] = Selectivity index, ratio of CC50 for cytotoxicity against MDCK cells to EC50 for antiviral activity against Influenza B virus B/Lee/40 infected in MDCK cells assessed as reduction in virus-induced cytopathic effect; format: toxicity, cell-based; settings: dog, read-out: Ratio CC50/EC50
[28] = Selectivity index, ratio of CC50 for cytotoxicity against golden hamster BHK-21 cells to EC50 for antiviral activity against Dengue virus 2 infected in BHK-21 cells transfected with Renilla luciferase tagged viral subgenomic replicon; format: toxicity, cell-based; settings: read-out: Ratio CC50/EC50
[29] = test system: Influenza B virus; assay: Antiviral activity against Influenza B virus B/Lee/40 infected in MDCK cells assessed as reduction in virus-induced cytopathic effect incubated for 3 days in presence of TPCK-treated trypsin by MTT assay; format: functional, organism-based; settings: B/Lee/40, MDCK, 72 h
[30] = Selectivity index, ratio of CC50 for cytotoxicity against MDCK cells to EC50 for antiviral activity against Influenza A virus A/Puerto Rico/8/34 (H1N1) infected in MDCK cells assessed as reduction in virus-induced cytopathic effect; format: toxicity, cell-based; settings: dog, read-out: Ratio CC50/EC50
[31] = Selectivity index, ratio of CC50 for cytotoxicity against MDCK cells to EC50 for antiviral activity against Influenza A virus A/Hong Kong/8/68 (H3N2) infected in MDCK cells assessed as reduction in virus-induced cytopathic effect; format: toxicity, cell-based; settings: dog, read-out: Ratio CC50/EC50

SMILES: CCC(CC)COC(=O)[C@H](C)N[P@](=O)(OC[C@H]1O[C@@](C#N)(c2ccc3c(N)ncnn23)[C@H](O)[C@@H]1O)Oc1ccccc1
- EC50 [1]: 0.57 µM
- EC50 [2]: 4.83 µM
- selectivity ratio [3]: > 348
- EC50 [4]: 0.14 µM
- CC50 [5]: > 100 µM
- EC50 [6]: 0.18 µM
- selectivity ratio [7]: > 24.7
- EC50 [8]: 0.984 µM
- selectivity ratio [9]: > 41.6
- EC50 [10]: < 0.042 µM
- CC50 at 48 h [11]: 2.62 µM
- CC50 at 48 h [12]: > 100 µM
- selectivity ratio [13]: > 702
- selectivity ratio [14]: 14.2
- EC50 [15]: 2.4 µM
- CC50 [16]: 19.6 µM
- selectivity ratio [17]: > 174
- CC50 at 48 h [18]: > 100 µM
- EC50 [19]: 1.37 µM
- selectivity ratio [20]: > 73.1
- selectivity ratio [21]: > 20.7

SMILES: NC(=O)c1ncn([C@@H]2O[C@H](CO)[C@@H](O)[C@H]2O)n1 [RIBAVIRIN]
- EC50 [22]: 17.3 µM
- EC50 [23]: 17.2 µM
- CC50 [24]: > 100 µM
- CC50 at 72 h [25]: > 100 µM
- EC50 [26]: 3.47 µM
- selectivity ratio [27]: > 6.39
- selectivity ratio [28]: > 28.8
- EC50 [29]: 15.7 µM
- selectivity ratio [30]: > 5.77
- selectivity ratio [31]: > 5.82
